Test results as given in US20250257146A1, “ANTI-TROP2 ANTIBODY-DRUG CONJUGATE” (DAIICHI SANKYO COMPANY, LIMITED, priority 2013, published 2025).

Assays:
[1] = Self-degradation of released drug derivative with aminal structure; assay type: physicochemical
various cancer cells = details: against various cancer cells; cited from earlier work
topoisomerase I = target: T1, topoisomerase I (Homo sapiens, UniProt P11387); details: compared with SN-38 and topotecan; cited from earlier work
T1 sequence (P11387 1-765): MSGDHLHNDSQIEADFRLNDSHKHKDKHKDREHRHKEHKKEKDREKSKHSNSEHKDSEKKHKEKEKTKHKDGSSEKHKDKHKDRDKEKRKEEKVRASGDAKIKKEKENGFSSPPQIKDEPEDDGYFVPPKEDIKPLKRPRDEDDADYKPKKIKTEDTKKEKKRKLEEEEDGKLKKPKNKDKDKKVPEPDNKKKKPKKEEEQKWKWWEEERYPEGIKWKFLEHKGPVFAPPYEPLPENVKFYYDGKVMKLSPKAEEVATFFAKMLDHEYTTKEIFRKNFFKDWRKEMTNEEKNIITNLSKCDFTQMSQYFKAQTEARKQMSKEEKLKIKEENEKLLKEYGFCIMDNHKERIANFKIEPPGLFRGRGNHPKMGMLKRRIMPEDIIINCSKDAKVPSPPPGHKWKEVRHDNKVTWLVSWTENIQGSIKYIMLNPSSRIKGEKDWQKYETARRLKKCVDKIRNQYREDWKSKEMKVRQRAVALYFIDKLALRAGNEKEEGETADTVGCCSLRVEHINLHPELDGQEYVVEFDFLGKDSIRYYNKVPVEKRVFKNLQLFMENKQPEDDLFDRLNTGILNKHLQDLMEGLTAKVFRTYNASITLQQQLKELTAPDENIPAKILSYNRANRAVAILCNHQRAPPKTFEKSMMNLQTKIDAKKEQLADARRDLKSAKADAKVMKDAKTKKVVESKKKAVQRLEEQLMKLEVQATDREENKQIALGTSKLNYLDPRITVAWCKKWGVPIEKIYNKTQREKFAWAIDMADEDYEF

human tumor = human tumor subcutaneously transplanted mouse model; cited from earlier work
[2] = target: T2, CHOK1 cells expressing human TROP2 (Homo sapiens, UniProt P09758); experiment: FACS analysis of TINA1 antibody on TROP2-overexpressing cells; assay type: cell-based
T2 construct: expressed in transfected cells; host or cells: CHOK1
T2 sequence (P09758 27-323): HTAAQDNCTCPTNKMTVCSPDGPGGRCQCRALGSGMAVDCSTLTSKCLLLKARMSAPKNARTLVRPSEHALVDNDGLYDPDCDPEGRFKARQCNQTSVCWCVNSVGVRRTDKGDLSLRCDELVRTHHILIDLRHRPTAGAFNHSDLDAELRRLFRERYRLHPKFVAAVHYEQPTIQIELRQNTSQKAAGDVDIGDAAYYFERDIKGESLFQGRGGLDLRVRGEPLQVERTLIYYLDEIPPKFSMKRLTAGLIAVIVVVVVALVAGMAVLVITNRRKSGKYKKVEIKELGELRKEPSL
Procedure: Because the antigen of the TINA1 antibody was predicted to be TROP2 from the band pattern, overexpression analysis by gene transfer of cDNA was conducted without mass spectrometry. […] Similar FACS analysis was conducted using a lung cancer cell line PC14, a lung cancer cell line NCI-H322, a lung cancer cell line NCI-H2122, a lung cancer cell line LCAM1, a lung cancer cell line LC2/ad, a pancreatic cancer cell line MIAPaCa2, a pancreatic cancer cell line PK-1, a prostate cancer cell line PC3, a colorectal cancer cell line HCT116, a melanoma cell line A375, an ovarian cancer cell line SKOV3, a hematopoietic tumor cell line RPMI8226, a hematopoietic tumor cell line K562, PBMC (human peripheral blood mononuclear cells), and human platelet. All of the examined lung cancer cell lines were TROP2-positive, and PC3, PK1, and SKOV3 were positive as the cell lines except for the lung cancer ones. On the other hand, all of the normal blood cells were negative.

NCI-H322 cells = experiment: Internalization activity and immunotoxin activity using DT3C; assay type: cell-based, human
Excerpt: 4-1) Antibody internalization activity evaluation system A recombinant fusion protein DT3C was produced for the purpose of measuring internalization activity and immunotoxin activity of an antibody. This DT3C is a protein having a catalytic domain of diphtheria toxin (DT) and three antibody-binding regions of protein G. DT3C specifically binds to an Fc moiety of an antibody, is stable, and induces cell death by inhibiting protein synthesis when taken up into cells. By use of this system, the internalization effect of antibody and the cytocidal effect thereof by immunotoxin can be observed at the same time (Yamaguchi, M., Hamada, H., et al., Biochemical and Biophysical Research Communications 454 (2014) 600-603).
4 μg/mL of DT3C was added at 25 μL/well to a 96-well plate, further the culture supernatants of 11 hybridomas obtained by the method of Example 1 or a method equivalent thereto were each added at 25 μL/well to the plate, and the plate was incubated at room temperature for 30 minutes. […] After incubation for 1 hour in a CO2 incubator of 37° C., the number of live cells was measured using a microplate reader (OD450 to OD640, infinite 200, Tecan Trading AG).
Each diluted solution of DT3C (0, 0.004, 0.04, 0.4, 4, or 40 μg/mL) was added at 25 μL/well to a 96-well plate, then each antibody (40 μg/mL) was added at 25 μL/well to the plate, and the plate was incubated at room temperature for 30 minutes. […] After incubation for 1 hour in a CO2 incubator of 37° C., the number of live cells was measured using a plate reader (OD450 to OD640).
Anti-TROP2 antibodies TINA1 (immunogen: lung cancer line NCI-H322), KCL7A3 and KCL2D6 (immunogen: pancreatic cancer cell line KCL-MOH1), Pr1E11 and Pr8H10 (immunogen: prostate cancer cell line Pc-1), and NY16 and NY17 (immunogen: pancreatic cancer cell line PK-1) obtained by the method of Example 1 or a method equivalent thereto, and commercially available 77220 (R&D Systems Inc.) were evaluated for their internalization activity and immunotoxin activity in the same manner as in Example 4-3).

For `CCC1(O)C(=O)OCc2c1cc1n(c2=O)Cc2c-1nc1cc(F)c(C)c3c1c2C(NC(=O)COCN)CC3` (centres unmarked) [NH2—CH2—O—CH2—C(═O)—(NH-DX)], the “stability of the aminal structure (self-degradation to HO—CH2—C(═O)—(NH-DX))” value [1] was “unstable”.

For `CC[C@@]1(O)C(=O)OCc2c1cc1n(c2=O)Cc2c-1nc1cc(F)c(C)c3c1c2[C@@H](N)CC3` [exatecan, (1S,9S)-1-amino-9-ethyl-5-fluoro-2,3-dihydro-9-hydroxy-4-methyl-1H,12H-benzo[de]pyrano[3′,4′:6,7]indolizino[1,2-b]quinolin-10,13(9H,15H)-dione], the “in vitro cytocidal activity” value (various cancer cells) is listed as “higher in vitro cytocidal activity”, the “inhibitory activity on topoisomerase I” value (topoisomerase I) is listed as “higher than SN-38” and the antitumor effect (human tumor) is listed as “potent antitumor effect”.

B1: TINA1: antibody produced by the TROP2 hybridoma TINA1; mouse anti-TROP2 monoclonal antibody (antibody, listed as Mus musculus, V domains shown)
VH: QIQLVQSGPELKKPGETVRISCKASGYTFTTAGMQWVQKMPGKGLKWIGWINTHSGVPKYAEDFKGRFAFSLETSASTAYLQISNLKNEDTTTYFCARSGFGSSYWYFDVWGAGTAVTVSS
VL: DIVMTQSHKFMSTSVGDRVSITCKASQDVSTAVAWYQQKPGQSPKLLIYSASYRYTGVPDRFTGSGSGTAFTFTISSVQAEDLAVYYCQQHYITPLTFGAGTKLELKRA
In the case of B1, the FACS response [2] is reported as “strong positive response”, the “internalization activity and immunotoxin activity” value (NCI-H322 cells; among the 8 anti-TROP2 antibodies, as Example 4-3, FIG. 12) is reported as “strongest activity” and the “internalization activity and immunotoxin activity” value (NCI-H322 cells; antibody 40 μg/mL + DT3C 0-40 μg/mL, among antibodies against CD59, CD71, EGFR, EpCAM, TROP2, FIG. 11) is reported as “strongest internalization activity and immunotoxin activity”. The “internalization activity and immunotoxin activity” value (NCI-H322 cells; hybridoma culture supernatant + DT3C 4 μg/mL, NCI-H322 cells, 3 days, FIG. 10) was “strong internalization activity and immunotoxin activity”.
